Measured values reported in patent US10457659B2, “Compositions and methods for increasing proliferation of adult salivary stem cells” (The Board of Trustees of the Leland Stanford Junior …, priority 2011, dated 2019).
“Also recorded” adds a separate entry of the source.

Key:
[1] = biological target: T1, ALDH3 (Mus musculus, UniProt P47739); assay: ALDH3 enzyme activity in esophagus cell homogenate after osmotic pump infusion into mice (FIG. 3B); format: in vivo; details: 34 mg/kg/day, n=5, p<0.05
T1 construct: enhanced ALDH3 enzyme activity by 29% in esophagus cell homogenate; from tissue; host or cells: esophagus cell homogenate of C57BL/6 mice
T1 sequence (P47739 1-453): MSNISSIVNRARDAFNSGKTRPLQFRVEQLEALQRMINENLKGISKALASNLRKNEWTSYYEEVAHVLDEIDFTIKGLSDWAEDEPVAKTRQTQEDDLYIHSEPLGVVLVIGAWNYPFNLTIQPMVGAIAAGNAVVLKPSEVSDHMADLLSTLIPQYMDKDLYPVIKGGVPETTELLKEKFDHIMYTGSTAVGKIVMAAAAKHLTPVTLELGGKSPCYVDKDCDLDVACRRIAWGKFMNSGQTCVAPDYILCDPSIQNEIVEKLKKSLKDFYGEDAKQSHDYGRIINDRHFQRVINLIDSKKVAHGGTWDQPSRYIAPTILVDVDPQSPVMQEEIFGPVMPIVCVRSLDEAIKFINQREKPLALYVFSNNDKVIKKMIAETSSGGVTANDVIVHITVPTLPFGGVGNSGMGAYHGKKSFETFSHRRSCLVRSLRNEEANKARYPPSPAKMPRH

[2] = biological target: T2, human ALDH3 recombinant enzyme (Homo sapiens, UniProt P30838); assay: Catalytic activity of recombinant ALDH3 enzyme (isozyme selectivity, FIG. 3A); format: biochemical; details: n=3, p<0.01
T2 sequence (P30838 1-453): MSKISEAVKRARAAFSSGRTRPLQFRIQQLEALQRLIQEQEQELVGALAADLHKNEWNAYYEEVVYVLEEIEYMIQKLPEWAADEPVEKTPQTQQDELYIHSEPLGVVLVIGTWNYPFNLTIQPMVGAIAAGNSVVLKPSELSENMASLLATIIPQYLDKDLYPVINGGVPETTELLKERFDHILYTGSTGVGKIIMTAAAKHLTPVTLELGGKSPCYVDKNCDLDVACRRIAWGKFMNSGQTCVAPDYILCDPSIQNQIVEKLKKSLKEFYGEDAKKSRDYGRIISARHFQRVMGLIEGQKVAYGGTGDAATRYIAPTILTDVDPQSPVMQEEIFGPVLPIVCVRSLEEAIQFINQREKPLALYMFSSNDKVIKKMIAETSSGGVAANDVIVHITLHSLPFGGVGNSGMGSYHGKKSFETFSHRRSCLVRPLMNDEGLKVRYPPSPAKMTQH
Procedure: (§1) As an example of an assay for dehydrogenase activity, ALDH aldehyde dehydrogenase activity is assayed at 25° C. in 50 mM sodium pyrophosphate HCl buffer, pH 9.0, 100 mM sodium phosphate buffer, pH 7.4, or 50 mM sodium phosphate buffer, pH 7.4, where the buffer includes NAD^+ (e.g., 0.8 mM NAD^+, or higher, e.g., 1 mM, 2 mM, or 5 mM NAD^+) and an aldehyde substrate such as 14 μM propionaldehyde. Reduction of NAD^+ is monitored at 340 nm using a spectrophotometer, or by fluorescence increase using a fluoromicrophotometer Enzymatic activity can be assayed using a standard spectrophotometric method, e.g., by measuring a reductive reaction of the oxidized form of nicotinamide adenine dinucleotide (NAD^+) to its reduced form, NADH, at 340 nm, as described in US 2005/0171043; and WO 2005/057213, and as depicted schematically in FIG. 4. In an exemplary assay, the reaction is carried out at 25° C. in […] pyrophosphate (NaPPi) buffer, pH 9.0, 2.4 mM NAD^+ and 10 mM acetaldehyde as the substrate. Enzymatic activity is measured by a reductive reaction of NAD^+ to NADH at 340 nm, as described in US 2005/0171043; and WO 2005/057213. Alternatively, the production of NADH can be coupled with another enzymatic reaction that consumes NADH and that provides for a detectable signal. […]

[3] = biological target: T3, ALDH2 (Homo sapiens, UniProt P05091); assay: Catalytic activity of ALDH2 isozyme (isozyme selectivity, FIG. 3A); format: biochemical
T3 sequence (P05091 18-517): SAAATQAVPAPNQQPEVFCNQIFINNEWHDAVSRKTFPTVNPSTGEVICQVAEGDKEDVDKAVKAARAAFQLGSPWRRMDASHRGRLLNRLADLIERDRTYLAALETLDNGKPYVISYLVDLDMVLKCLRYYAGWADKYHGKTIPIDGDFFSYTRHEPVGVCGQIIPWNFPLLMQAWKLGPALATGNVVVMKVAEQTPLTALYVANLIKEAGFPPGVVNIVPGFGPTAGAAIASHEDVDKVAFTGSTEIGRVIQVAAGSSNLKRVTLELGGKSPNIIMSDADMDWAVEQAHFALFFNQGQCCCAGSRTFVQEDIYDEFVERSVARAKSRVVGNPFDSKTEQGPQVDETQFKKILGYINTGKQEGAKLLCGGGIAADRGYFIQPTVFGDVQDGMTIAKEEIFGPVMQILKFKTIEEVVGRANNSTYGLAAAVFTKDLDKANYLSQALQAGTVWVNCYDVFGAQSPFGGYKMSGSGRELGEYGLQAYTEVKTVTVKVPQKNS
Procedure: as §1

[4] = system: SMG salispheres; assay: Salisphere formation and BrdU incorporation of unselected SMG cells from treated mice (FIG. 3D); format: in vivo, mouse
Procedure: After 3 days of culture, cells were stained with Brdu staining kit according to the manufacturer's instructions (Invitrogen, Carlsbdad, Calif.). The total number of salispheres and BrdU positive salispheres per 96 well were counted under light microscopy. For each group 20 wells were counted and experiments were repeated 3 times.
(§2) An ALDH3 activator (Alda89, 100 ug/ml, n=5) and Vehicle control ([…]; 50% DMSO and 50% PEG400, n=5) was injected into ALZET osmotic pumps (DURECT Corporation, Cupertino, Calif.). The osmotic pumps were implanted subcutaneously into C57BL/6 mice. The mice were euthanized after 7 days and salivary gland tissues were collected for analysis of salsiphere formation and BrdU incorporation as described above. In addition, FACs analysis for anti-mouse c-Kit and anti-mouse CD90 (BD Biosciences, San Jose, Calif.) cell population was also performed in pooled SMG samples.

[5] = system: c-kit+/CD90+ SMG cells; assay: FACS count of c-Kit+/CD90+ submandibular gland cells after 7 days of infusion in mice (FIG. 3C); format: in vivo, mouse
Procedure: All animal procedures were approved by the Institutional Animal Care and Use Committee at Stanford University. Female C57BL/6 mice (n=10, 4-5 weeks old, Jackson Laboratory, Sacramento, Calif.) were used for ALDH3 activator study.
as §2

[6] = system: ALDH5; assay: Catalytic activity of ALDH5 isozyme (isozyme selectivity, FIG. 3A); format: biochemical
Procedure: as §1

[7] = biological target: T4, ALDH1 (Homo sapiens, UniProt P00352); assay: Catalytic activity of ALDH1 isozyme (isozyme selectivity, FIG. 3A); format: biochemical
T4 sequence (P00352 1-501): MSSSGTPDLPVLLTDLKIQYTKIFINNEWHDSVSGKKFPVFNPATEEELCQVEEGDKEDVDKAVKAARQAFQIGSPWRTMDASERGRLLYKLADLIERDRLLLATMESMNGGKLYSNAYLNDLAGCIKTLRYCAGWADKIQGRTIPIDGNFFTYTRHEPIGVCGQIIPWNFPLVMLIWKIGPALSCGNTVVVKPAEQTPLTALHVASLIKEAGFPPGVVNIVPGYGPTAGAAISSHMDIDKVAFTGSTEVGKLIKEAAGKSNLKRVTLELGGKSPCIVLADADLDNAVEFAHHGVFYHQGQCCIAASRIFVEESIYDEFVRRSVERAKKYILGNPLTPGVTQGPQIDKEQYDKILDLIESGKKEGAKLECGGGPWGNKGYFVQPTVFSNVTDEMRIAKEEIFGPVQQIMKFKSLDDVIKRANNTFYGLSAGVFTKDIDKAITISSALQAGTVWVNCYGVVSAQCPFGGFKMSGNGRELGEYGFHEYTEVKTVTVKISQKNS
Procedure: as §1

C=CCc1ccc2c(c1)OCO2 [Alda-89, 5-(2-propenyl)-1,3-benzodioxole]
enhancement of ALDH3 enzyme activity in esophagus cell homogenate vs vehicle control [1]: 29%
catalytic activity of human ALDH3 recombinant enzyme [2]: 304.4±7.1 % of control
effect on ALDH2 isozyme catalytic activity [3]: no effect
change in BrdU+ salisphere number after treatment of adult mice ([4]; adult mice, summary statement): more than doubling
number of BrdU+ spheres ([4]; unselected SMG cells from mice treated 7 days, 3 days of culture, vehicle 66±1.42, p<0.05): 91±0.83 spheres/5000 cells
total number of salispheres ([4]; unselected SMG cells from mice treated 7 days, 3 days of culture, vehicle 86±0.58, p<0.05): 121±0.83 spheres/5000 cells
change in number of c-kit+/CD90+ SMG cells compared to vehicle control ([5]; 7 days of treatment): more than doubling; also recorded: more than doubled
number of c-kit+/CD90+ cells in SMG ([5]; 7 days of treatment by subcutaneous osmotic pump, vehicle 7.37±0.45%, p<0.05): 17.8±0.95%
effect on ALDH5 isozyme catalytic activity [6]: no effect
effect on ALDH1 isozyme catalytic activity [7]: no effect
